Values joined by “and” are separate entries in the source; they are usually repeats but may differ in a detail not shown here. Identical values can stand only once.
Assays:
[1] = Plasma stability and conversion to EFdA; conditions: for half-life at 2 µM: human, plasma, pH 7.4
Experimental: The pooled frozen plasma was thawed in a water bath at 37° C. prior to experiment. Plasma was centrifuged at 4000 rpm for 5 min and the clots were removed if any. The pH will be adjusted to 7.4±0.1 if required.
Preparation of test compounds and positive control (propantheline bromide): 1 mM intermediate solution was prepared by diluting 10 μL of the stock solution with 90 μL MeOH; 1 mM intermediate of positive control Propantheline was prepared by diluting 10 μL of the stock solution with 90 μL ultrapure water. 100 μM dosing solution was prepared by diluting 20 μL of the intermediate solution (1 mM) with 180 μL MeOH. 98 μL of blank plasma was spiked with 2 μL of dosing solution (100 μM) to achieve 2 μM of the final concentration in duplicate and samples were incubated at 37° C. in a water bath. At each time point (0, 10, 30, 60 and 120 min), […] of stop solution (0.1% FA in MeOH containing 200 ng/mL tolbutamide and 200 ng/mL Labetalol) was added to precipitate protein and mixed thoroughly. Centrifuged sample plates at 4,000 rpm for 10 min. An aliquot of supernatant (100 μL) was transferred from each well to another plates.
Data analysis: The % remaining of test compound after incubation in plasma was calculated using following equation: % Remaining=100×(PAR at appointed incubation time/PAR at T0 time) where PAR is the peak area ratio of analyte versus internal standard (IS) (LC/MS/MS mobile phase condition: 0.1% Formic Acid in Water/0.1% Formic Acid in Acetonitrile. The appointed incubation time points are TO (0 min), Tn (n=0, 10, 30, 60, 120 min). Liver S9 Stability

[2] = Liver S9 stability and conversion to EFdA; type: in vitro ADME, human; conditions: for half-life at 1 µM: human liver S9, 37° C.
Experimental: Intermediate solution: Dilute 5 μL of compounds or controls (7-ethoxycoumarin) from stock solution (10 mM) with 495 μL MeOH (Conc.: 100 μM, 1% DMSO, 99% MeOH). Stop solution: Cold ACN (including 100 ng/mL Tolbutamide and Labetalol as internal standard). Add 2 μL test compound or control working solution/well to all plates (T0, T5, T10, T20, T30, T60, NCF60) except matrix blank. Add 600 μL/well stop solution (cold in 4° C., including 100 ng/mL Tolbutamide/100 ng/mL Labetalol) to terminate the TO plate, then put it on ice. Dispense 840 μL/well S9 solution to 96-well plate as reservoir according to plate map. Then add 100 μL/well to every plate by Apricot. Incubate S9 solution and compound at 37° C. for about 10 min except NCF60 and TO. After adding S9 solution and 98 μLPB buffer to NCF60, incubate at 37° C. without pre-warming, start timer 1. After 60 min, add 600 μL/well stop solution to terminate the reaction. After pre-warming, dispense 760 μL/well cofactor solution to 96-well plate as reservoir according to plate map. Then add 98 μL/well to every plate by Apricot to start reaction. Incubate at 37° C., start timer 2, Add 600 μL/well stop solution (cold in 4° C., including 100 ng/mL Tolbutamide and Labetalol) to terminate the reaction. Samples are centrifuged at 4000 rpm for 20 min. While centrifuging, load 8×new 96-well plate with 300 μL HPLC water, then transfer 100 μL supernatant, mix with water for LC/MS/MS, transferred to Bioanalytical Services for LC-MS/MS analysis. Use equation of first order kinetics to calculate t1/2 and CL: Equation of first order kinetics: […]

[3] = Plasma exposures following oral administration to beagle dogs; conditions: EFdA PO 5 mg/kg

Row | Compound | Stability in Human Plasma Formation of EFdA [1] | half-life at 2 µM [1] [min] | Stability in Human Liver S9 Formation of EFdA [2] | half-life at 1 µM [2] [min] | other results
1 | C#C[C@]1(COC(=O)NC(C)C)O[C@@H](n2cnc3c(N)nc(F)nc32)C[C@@H]1O [Formula 2-A, ((2R,3S,5R)-5-(6-amino-2-fluoro-9H-purin-9-yl)-2-ethynyl-3-hydroxytetrahydrofuran-2-yl)methyl isopropylcarbamate] | No | > 200 | No | 50 to 200 | –
2 | C#C[C@]1(CO)O[C@@H](n2cnc3c(NC(=O)OC(C)C)nc(F)nc32)C[C@@H]1O [Formula 3-A, isopropyl (9-((2R,4S,5R)-5-ethynyl-4-hydroxy-5-(hydroxymethyl)tetrahydrofuran-2-yl)-2-fluoro-9H-purin-6-yl)carbamate] | No | > 200 | No | 50 to 200 | –
3 | C#C[C@]1(COC(=O)OCc2oc(=O)oc2C)O[C@@H](n2cnc3c(N)nc(F)nc32)C[C@@H]1OC(=O)OCc1oc(=O)oc1C [Formula 4-C, ((2R,3S,5R)-5-(6-amino-2-fluoro-9H-purin-9-yl)-2-ethynyl-3-((((5-methyl-2-oxo-1,3-dioxol-4-yl)methoxy)carbonyl)oxy)tetrahydrofuran-2-yl)methyl ((5-methyl-2-oxo-1,3-dioxol-4-yl)methyl) carbonate] | Yes | < 50 | Yes | < 50 | Conversion to the target drug (EFdA) in human plasma assay [1]: converted to the target drug efficiently; Conversion to the target drug (EFdA) in liver S9 assay [2]: converted to the target drug efficiently
4 | C#C[C@]1(COC(=O)NC)O[C@@H](n2cnc3c(N)nc(F)nc32)C[C@@H]1O [Formula 5-A, ((2R,3S,5R)-5-(6-amino-2-fluoro-9H-purin-9-yl)-2-ethynyl-3-hydroxytetrahydrofuran-2-yl)methyl methylcarbamate] | No | > 200 | No | 50 to 200 | –
5 | C#C[C@]1(CO)O[C@@H](n2cnc3c(NCc4oc(=O)oc4C)nc(F)nc32)C[C@@H]1O [Formula 6-A, 4-(((9-((2R,4S,5R)-5-ethynyl-4-hydroxy-5-(hydroxymethyl)tetrahydrofuran-2-yl)-2-fluoro-9H-purin-6-yl)amino)methyl)-5-methyl-1,3-dioxol-2-one] | No | < 50 | Yes | < 50 | Conversion to the target drug (EFdA) in liver S9 assay [2]: converted to the target drug efficiently
6 | C#C[C@]1(COC(=O)NCCN(C)Cc2oc(=O)oc2C)O[C@@H](n2cnc3c(N)nc(F)nc32)C[C@@H]1O [Formula 7-A, ((2R,3S,5R)-5-(6-amino-2-fluoro-9H-purin-9-yl)-2-ethynyl-3-hydroxytetrahydrofuran-2-yl)methyl (2-(methyl((5-methyl-2-oxo-1,3-dioxol-4-yl)methyl)amino)ethyl)carbamate] | No | 50 to 200 | No | < 50 | –
7 | C#C[C@]1(CO)O[C@@H](n2cnc3c(N)nc(F)nc32)C[C@@H]1O [Formula T-1A, (2R,3S,5R)-5-(6-amino-2-fluoro-9H-purin-9-yl)-2-ethynyl-2-(hydroxymethyl)tetrahydrofuran-3-ol, reference compound] | – | – | – | – | EFdA Concentrations in Dog Plasma ([3]; 0.250 hrs, individual animals, 5 mg/kg): 333 ng/mL and 276 ng/mL; EFdA Concentrations in Dog Plasma ([3]; 0.500 hrs, individual animals, 5 mg/kg): 299 ng/mL and 280 ng/mL; EFdA Concentrations in Dog Plasma ([3]; 1.00 hrs, individual animals, 5 mg/kg): 353 ng/mL and 361 ng/mL; EFdA Concentrations in Dog Plasma ([3]; 2.00 hrs, individual animals, 5 mg/kg): 212 ng/mL and 143 ng/mL; EFdA Concentrations in Dog Plasma ([3]; 4.00 hrs, individual animals, 5 mg/kg): 12.6 ng/mL and 17.9 ng/mL and 6.30 ng/mL; EFdA Concentrations in Dog Plasma ([3]; 6.00 hrs, individual animals): BQL; EFdA Concentrations in Dog Plasma ([3]; 8.00 hrs, individual animals): BQL; EFdA Concentrations in Dog Plasma ([3]; 12.0 hrs, individual animals): BQL; EFdA Concentrations in Dog Plasma ([3]; 24.0 hrs, individual animals): BQL; concentration at 0.25 h ([3]; male, beagle, dog, in vivo, po, 5 mg/kg, EFdA Concentrations in Dog Plasma, 0.250 hrs, Mean): 0.355 µg/mL; concentration at 0.25 h ([3]; male, beagle, dog, in vivo, po, 5 mg/kg, EFdA Concentrations in Dog Plasma, 0.250 hrs, individual animals): 0.456 µg/mL; concentration at 0.5 h ([3]; male, beagle, dog, in vivo, po, 5 mg/kg, EFdA Concentrations in Dog Plasma, 0.500 hrs, Mean): 0.323 µg/mL; concentration at 0.5 h ([3]; male, beagle, dog, in vivo, po, 5 mg/kg, EFdA Concentrations in Dog Plasma, 0.500 hrs, individual animals): 0.391 µg/mL; concentration at 1 h ([3]; male, beagle, dog, in vivo, po, 5 mg/kg, EFdA Concentrations in Dog Plasma, 1.00 hrs, Mean): 0.361 µg/mL; concentration at 1 h ([3]; male, beagle, dog, in vivo, po, 5 mg/kg, EFdA Concentrations in Dog Plasma, 1.00 hrs, individual animals): 0.369 µg/mL; concentration at 2 h ([3]; male, beagle, dog, in vivo, po, 5 mg/kg, EFdA Concentrations in Dog Plasma, 2.00 hrs, Mean): 0.189 µg/mL; concentration at 2 h ([3]; male, beagle, dog, in vivo, po, 5 mg/kg, EFdA Concentrations in Dog Plasma, 2.00 hrs, individual animals): 0.211 µg/mL; concentration at 4 h ([3]; male, beagle, dog, in vivo, po, 5 mg/kg, EFdA Concentrations in Dog Plasma, 4.00 hrs, Mean): 0.0123 µg/mL
